Experimental data published in patent US20030148529A1 (priority 2000, published 2003).

What was measured:
[1] = system: Male and female M. croceipes; parameters: species or system Microplitis croceipes; conditions: in vivo
[2] = system: M. croceipes; parameters: species or system Microplitis croceipes; conditions: in vivo

CCCCCC(=O)CC [3-Octanone]
Head-sticking behavior [1]: no head-sticking behavior | Average number of times a trained wasp entered the opening [2]: approximately 1.5 | Average time spent in the opening [2]: 15 s | Trained wasps displaying head-sticking behavior [2]: about 18 out of 20
